Experiment [1] can be described thus: Inhibition of Leishmania major strain Friedlin N-terminal His6-tagged GSK3 expressed in Escherichia coli BL21(DE3) using Biotin-labeled GSP-2 peptide substrate after 90 mins in presence of [gamma33-P]ATP by scintillation proximity assay.
Experiment [2] in a line: Inhibition of Trypanosoma brucei GSK3 using Biotin-labeled GSP-2 peptide substrate after 90 mins in presence of [gamma33-P]ATP by scintillation proximity assay.
A short description of experiment [3]: Inhibition of Leishmania major strain Friedlin endogenous GSK3 using Biotin-labeled GSP-2 peptide substrate after 90 mins in presence of [gamma33-P]ATP by scintillation proximity assay.
Experiment [4] in a line: Inhibition of Leishmania major strain Friedlin fusion protein GSK3 using Biotin-labeled GSP-2 peptide substrate after 90 mins in presence of [gamma33-P]ATP by scintillation proximity assay.
Experiment [5] is described as follows: Inhibition of Leishmania infantum MHOM/BR/82/BA-2 N-terminal His6-tagged GSK3 expressed in Escherichia coli BL21(DE3) using Biotin-labeled GSP-2 peptide substrate after 90 mins in presence of [gamma33-P]ATP by scintillation proximity assay.
Experiment [6] addresses T1, Dual specificity protein kinase CLK1 (Homo sapiens, UniProt P49759). The experiment is described as follows: Inhibition of human CLK1 (148 to 484 residues) expressed in Escherichia coli BL21(DE3) preincubated for 10 mins followed by AFRREWSPGKEAKK substrate addition by pyruvate kinase and lactate dehydrogenase coupled enzyme assay.
The nature of experiment [7]: Inhibition of GSK3 (unknown origin) using substrate after 30 mins in presence of [gamma-33P]ATP by liquid scintillation counting. Set-up: species or system Homo sapiens.
A further experiment concerns the target CDK9/cyclin T1 (Homo sapiens, UniProt P50750). The experiment is described as follows: Inhibition of CDK9/CyclinT (unknown origin) using substrate after 30 mins in presence of [gamma-33P]ATP by liquid scintillation counting. The format is protein-complex assay.
In experiment [8] the target is T1, Dual specificity protein kinase CLK1. Kind of experiment: Inhibition of human CLK1 using substrate after 30 mins in presence of [gamma-33P]ATP by liquid scintillation counting.
Experiment [9] deals with Glycogen synthase kinase-3 (Homo sapiens, UniProt P49840+P49841). The experiment is described as follows: Inhibition of GSK3 alpha/beta (unknown origin) using substrate after 30 mins in presence of [gamma-33P]ATP by liquid scintillation counting. The format is protein assay.
The target of experiment [10] is Dual specificity tyrosine-phosphorylation-regulated kinase 1A (Homo sapiens, UniProt Q13627). The experiment is described as follows: Inhibition of DYRK1A (unknown origin) using substrate after 30 mins in presence of [gamma-33P]ATP by liquid scintillation counting.
The target in experiment [11] is Vascular endothelial growth factor receptor 2 (Homo sapiens, UniProt P35968). The experiment is described as follows: Inhibition of VEGFR2 (unknown origin) using substrate after 30 mins in presence of [gamma-33P]ATP by liquid scintillation counting.
Chain of Vascular endothelial growth factor receptor 2 (P35968 whole entry): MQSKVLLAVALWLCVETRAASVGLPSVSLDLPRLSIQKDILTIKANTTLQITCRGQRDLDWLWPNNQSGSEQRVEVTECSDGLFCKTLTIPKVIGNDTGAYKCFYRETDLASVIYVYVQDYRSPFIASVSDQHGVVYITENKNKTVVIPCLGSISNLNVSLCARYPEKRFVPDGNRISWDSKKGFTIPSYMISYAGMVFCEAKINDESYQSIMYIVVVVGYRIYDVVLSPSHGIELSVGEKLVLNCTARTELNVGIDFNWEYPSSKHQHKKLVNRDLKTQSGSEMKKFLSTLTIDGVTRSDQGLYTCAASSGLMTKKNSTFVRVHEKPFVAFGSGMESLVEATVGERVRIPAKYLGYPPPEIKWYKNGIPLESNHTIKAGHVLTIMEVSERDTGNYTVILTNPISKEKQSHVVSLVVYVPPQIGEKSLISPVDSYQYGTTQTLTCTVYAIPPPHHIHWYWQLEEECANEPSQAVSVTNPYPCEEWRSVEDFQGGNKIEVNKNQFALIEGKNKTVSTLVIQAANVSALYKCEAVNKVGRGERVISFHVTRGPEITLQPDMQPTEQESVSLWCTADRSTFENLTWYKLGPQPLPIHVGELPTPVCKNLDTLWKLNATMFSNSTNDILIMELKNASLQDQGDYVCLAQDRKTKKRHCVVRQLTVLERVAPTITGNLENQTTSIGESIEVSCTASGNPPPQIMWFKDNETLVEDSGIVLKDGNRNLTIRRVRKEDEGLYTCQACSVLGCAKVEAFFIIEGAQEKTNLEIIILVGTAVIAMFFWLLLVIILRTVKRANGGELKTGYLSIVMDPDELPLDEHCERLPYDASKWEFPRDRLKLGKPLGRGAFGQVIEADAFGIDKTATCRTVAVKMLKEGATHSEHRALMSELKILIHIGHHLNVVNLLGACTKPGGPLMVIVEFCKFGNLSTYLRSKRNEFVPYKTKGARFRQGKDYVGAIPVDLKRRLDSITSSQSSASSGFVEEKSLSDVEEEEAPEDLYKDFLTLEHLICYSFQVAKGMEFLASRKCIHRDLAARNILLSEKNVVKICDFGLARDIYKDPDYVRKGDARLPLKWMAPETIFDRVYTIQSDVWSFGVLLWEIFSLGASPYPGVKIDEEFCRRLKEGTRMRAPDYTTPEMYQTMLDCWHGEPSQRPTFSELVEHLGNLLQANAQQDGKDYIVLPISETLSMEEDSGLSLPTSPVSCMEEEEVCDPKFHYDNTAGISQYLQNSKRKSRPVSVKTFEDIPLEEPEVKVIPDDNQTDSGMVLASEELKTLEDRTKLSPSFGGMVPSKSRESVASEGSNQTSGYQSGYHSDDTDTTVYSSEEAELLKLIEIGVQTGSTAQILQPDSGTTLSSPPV

T1 sequence (P49759 whole entry, the tested form may be a part): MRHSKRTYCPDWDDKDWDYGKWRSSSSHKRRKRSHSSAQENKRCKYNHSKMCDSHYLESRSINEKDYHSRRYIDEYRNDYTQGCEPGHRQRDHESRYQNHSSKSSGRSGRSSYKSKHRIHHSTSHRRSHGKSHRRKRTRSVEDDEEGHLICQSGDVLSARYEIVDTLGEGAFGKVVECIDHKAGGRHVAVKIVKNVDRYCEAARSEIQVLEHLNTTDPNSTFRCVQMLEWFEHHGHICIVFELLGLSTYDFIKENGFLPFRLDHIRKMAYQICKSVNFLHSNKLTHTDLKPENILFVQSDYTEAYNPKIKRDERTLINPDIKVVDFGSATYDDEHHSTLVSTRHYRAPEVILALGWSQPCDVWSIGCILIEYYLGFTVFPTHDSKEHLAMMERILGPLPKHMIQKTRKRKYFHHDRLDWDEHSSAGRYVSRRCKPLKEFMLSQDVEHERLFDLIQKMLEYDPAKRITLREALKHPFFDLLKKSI
Chain of CDK9/cyclin T1 (O60563 whole entry): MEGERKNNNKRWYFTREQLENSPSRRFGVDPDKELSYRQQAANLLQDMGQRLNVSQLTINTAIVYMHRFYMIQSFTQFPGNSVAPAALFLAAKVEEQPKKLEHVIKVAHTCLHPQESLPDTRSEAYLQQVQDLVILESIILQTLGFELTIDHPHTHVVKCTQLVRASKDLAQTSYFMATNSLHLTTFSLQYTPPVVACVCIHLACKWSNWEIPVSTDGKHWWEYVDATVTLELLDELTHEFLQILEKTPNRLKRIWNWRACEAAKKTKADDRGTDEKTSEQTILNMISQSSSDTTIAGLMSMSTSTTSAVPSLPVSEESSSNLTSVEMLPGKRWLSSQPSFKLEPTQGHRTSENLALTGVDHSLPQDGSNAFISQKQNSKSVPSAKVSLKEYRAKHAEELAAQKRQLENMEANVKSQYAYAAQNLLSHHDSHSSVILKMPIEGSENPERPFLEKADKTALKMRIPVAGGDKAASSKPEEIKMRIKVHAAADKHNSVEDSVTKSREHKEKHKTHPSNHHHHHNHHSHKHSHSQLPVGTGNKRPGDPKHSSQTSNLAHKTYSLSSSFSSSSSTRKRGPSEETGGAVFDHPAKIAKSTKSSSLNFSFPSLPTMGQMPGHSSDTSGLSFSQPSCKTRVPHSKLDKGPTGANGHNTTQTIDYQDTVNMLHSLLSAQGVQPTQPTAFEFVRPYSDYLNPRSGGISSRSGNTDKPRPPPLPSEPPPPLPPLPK
Chain of CDK9/cyclin T1 (P50750 whole entry): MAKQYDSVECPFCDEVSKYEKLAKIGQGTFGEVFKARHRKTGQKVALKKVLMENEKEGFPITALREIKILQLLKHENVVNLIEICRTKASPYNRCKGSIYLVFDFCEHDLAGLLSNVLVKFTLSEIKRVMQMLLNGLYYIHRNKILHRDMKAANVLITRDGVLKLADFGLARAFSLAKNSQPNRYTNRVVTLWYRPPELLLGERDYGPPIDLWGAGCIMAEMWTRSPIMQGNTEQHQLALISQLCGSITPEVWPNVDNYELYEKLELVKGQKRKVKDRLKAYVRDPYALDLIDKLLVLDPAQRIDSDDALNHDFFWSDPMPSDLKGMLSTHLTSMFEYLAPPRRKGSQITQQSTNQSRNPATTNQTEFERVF

As to `Nc1nc(Nc2ccc(S(N)(=O)=O)cc2)nn1C(=S)Nc1c(F)cccc1F`, the IC50 in experiment [1] was 320 nM; in experiment [2], 120 nM; in experiment [3], 180 nM; in experiment [4], 150 nM; in experiment [5], 260 nM; in experiment [6] it was 8.9 nM.
Regarding `CCS(=O)(=O)c1ccc(OC)c(Nc2ncc(/C=C/c3ccccc3)o2)c1`, the IC50 in [7] came out at 4000 nM; on CDK9/cyclin T1 it was 200 nM; in [8], 40 nM; in experiment [9] it was 7500 nM; in experiment [10], 7000 nM.
As for `CCS(=O)(=O)c1ccc(OC)c(Nc2ncc(-c3cc4ccccc4s3)o2)c1`, the figures for the IC50 in experiment [8] and in experiment [10] were 30 nM and 500 nM, respectively.
For the molecule `CCS(=O)(=O)c1ccc(OC)c(Nc2ncc(-c3ccc(CC#N)c(-c4ccccn4)c3)o2)c1`, the results for the IC50 in [11] and in experiment [8] were 23 nM and 80 nM, respectively.
In the case of `CCS(=O)(=O)c1ccc(OC)c(Nc2ncc(-c3ccc4cc(OC)ccc4c3)o2)c1`, the IC50 in experiment [8] was found to be 20 nM; in experiment [10] it was 1000 nM.

The record behind these values is ChEMBL document CHEMBL4002585, “Novel CLK1 inhibitors based on N-aryloxazol-2-amine skeleton - A possible way to dual VEGFR2 TK/CLK ligands” (Eur J Med Chem, 2017).
